# Earlier results, collected in publication PMC4844938 (Molecules and Cells, 2016).
# Test system: RANKL
# Details: ref Ta et al., 2010
substance,measurement,setting,value
1-YC WNSDCECCYRR-13 (bicyclic or more) [L3-3],affinity for RANKL relative to OP3-4,previous work,higher affinity for RANKL as compared to OP3-4
same,Kd,"read-out: Kd for RANKL, reported in previous work",17.3 µM
